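Values below derive from 48-hour exposures of cells grown in 96-well plates, with endpoints linearly interpolated between the two concentrations bracketing the appropriate inhibition level. TGI: total growth inhibition.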
Experiments:
Test in all cases: inhibition of tumour cell growth, NCI panel, 48 h
786-0 renal = system: 786-0 renal
MOLT-4 leukemia = system: MOLT-4 leukemia
SR leukemia = system: SR leukemia
HCC-2998 colon = system: HCC-2998 colon
U251 CNS = system: U251 CNS
SW-620 colon = system: SW-620 colon
SK-OV-3 ovarian = system: SK-OV-3 ovarian
HOP-62 NSCLC = system: HOP-62 NSCLC
SK-MEL-5 melanoma = system: SK-MEL-5 melanoma
NCI-H23 lung = system: NCI-H23 lung
UACC-62 melanoma = system: UACC-62 melanoma
SF-539 CNS = system: SF-539 CNS
HCT-15 colon = system: HCT-15 colon
HL-60(TB) leukemia = system: HL-60(TB) leukemia
SNB-75 CNS = system: SNB-75 CNS
COLO 205 colon = system: COLO 205 colon
SN12C renal = system: SN12C renal
HS 578T breast = system: HS 578T breast
MDA-N = system: MDA-N

Compound | TGI (786-0 renal) [µM] | TGI (MOLT-4 leukemia) [µM] | TGI (SR leukemia) [µM] | TGI (HCC-2998 colon) [µM] | TGI (U251 CNS) [µM] | TGI (SW-620 colon) [µM] | TGI (SK-OV-3 ovarian) [µM] | TGI (HOP-62 NSCLC) [µM] | TGI (SK-MEL-5 melanoma) [µM] | TGI (NCI-H23 lung) [µM] | TGI (UACC-62 melanoma) [µM] | TGI (SF-539 CNS) [µM] | TGI (HCT-15 colon) [µM] | TGI (HL-60(TB) leukemia) [µM] | TGI (SNB-75 CNS) [µM] | TGI (COLO 205 colon) [µM] | TGI (SN12C renal) [µM] | TGI (HS 578T breast) [µM] | TGI (MDA-N) [µM]
CCn1c2ccccc2c2ccc3c(c21)C(=O)c1ccccc1C3=O | > 100 | > 100 | > 100 | > 100 | > 100 | > 100 | > 100 | > 100 | > 100 | > 100 | > 100 | > 100 | > 100 | > 100 | > 100 | > 100 | > 100 |  | 
O=C1c2cc3c(cc2CC12Cc1cc4c(cc1C2=O)CCC4)CCC3 | > 100 | > 100 | > 100 | > 100 | > 100 | > 100 | > 100 | > 100 | > 100 | > 100 | > 100 | > 100 | > 100 | > 100 | > 100 | > 100 | > 100 | > 100 | 
C=CN1C(=O)OC[C@@H]1c1ccccc1 | > 100 | > 100 |  | > 100 | > 100 | 37.9 | > 100 | > 100 | > 100 | > 100 | > 100 | > 100 | > 100 | > 100 | > 100 | > 100 | > 100 |  | 
C=CCN(N=O)C(=O)N(CCCC(NC(C)=O)C(=O)NCc1ccccc1)Cc1ccccc1 (stereo not given) | > 100 | 58.3 |  |  | > 100 | > 100 | > 100 | > 100 | 93.8 | > 100 | > 100 | > 100 | > 100 | 52.9 | > 100 | > 100 | > 100 |  | 
CCN1CN(c2ccccc2)C2(CCN(CCCSc3ccc(F)cc3)CC2)C1=O | 26.6 | 23.7 | 36.5 |  |  | 26.1 | 33.2 | 12.6 | 13.8 | 24.1 | 30.2 | 21.5 | 24.9 | 26.6 | 30.1 | 6.48 | 20.5 |  | 26.4
Cc1cc(NC(=O)NC(=O)c2ccccc2N)ccc1Oc1ncc(Br)cn1 | 41.2 | > 30.3 | > 15.8 | 7.77 | 7.25 | > 100 | 3.02 | 31.2 | 16.2 | 0.575 | 1.75 | 0.287 | 8.31 | 1.39 | 37.7 | 0.108 | > 46.4 |  | 
O=C(O)C12C3C4C1C1C2C3C1(Br)C41OCCO1 (stereo not given) | > 100 | > 100 |  | > 100 | > 100 | > 100 | > 100 | > 100 | > 100 | > 100 |  | > 100 |  | > 100 | > 100 | > 100 |  |  | 
CC(C)(C)[Si](C)(C)OCC1OC(n2ccc(=O)[nH]c2=O)C(O[Si](C)(C)C(C)(C)C)[C@@]12O[C@H]2C(N)=O (stereo not given in full) | 29.9 | > 100 |  | > 100 | 23.2 | 42.5 | 36.6 | 26.8 | 16.5 | 28.7 | 99.3 | 13.4 | 28.4 | > 100 | 24.7 | 24.8 | 30.3 |  | 24.1
O/N=C/c1cc2c(cc1Br)OCO2 | > 100 | > 100 | > 100 | > 100 | > 100 | > 100 | > 100 | > 100 | > 100 | > 100 | > 100 | > 100 | > 100 | > 100 | > 100 | > 100 | > 100 |  | 
COP(=O)(OC)C(=NCc1ccccc1)NNc1ccc([N+](=O)[O-])cc1 | > 100 | 74.8 | 56.9 | > 100 | 66.9 | > 100 |  | 72.1 | 34.8 | 61.4 | > 100 | 44.7 | > 100 | 46 | 37.6 | > 100 |  |  | 
COc1cc(NCc2ccc3nc(-c4ccccc4)c(N)nc3c2)cc(OC)c1OC | > 100 | 58.6 | > 100 | > 100 | > 100 | > 100 | > 100 | > 100 | 28.9 | 62.3 | 72.6 | 91.4 | > 100 | 49.7 | 73.5 | 38.6 | > 100 |  | > 100
CCOP(=O)(OCC)/C(C#N)=C/c1ccc(-c2ccc(F)cc2F)o1 | 27.4 | 28.4 | 33.2 | 27.6 | 32.6 | 38.5 | 26.9 | 33.8 | 35.7 | 33.6 | 23.4 | 35.8 | 28.7 | 34.9 | 61.3 | 30.7 | 29.7 |  | 48.7
N#Cc1c(-c2ccc(Cl)cc2)c(C#N)c(=O)n(NS(=O)(=O)c2ccccc2)c1S | 34.6 | > 100 | 56.5 |  | 71.9 | 69.9 | > 100 |  | 33.3 | > 100 | 58.3 | 42.1 | 49.6 | 60 | > 100 | > 100 | 78 |  | 67.3
O=C(c1ccco1)n1c2ccc(Br)cc2c2nc3ccccc3nc21 | 51 | > 100 | > 100 | > 100 | > 100 | > 100 |  | 87 | > 100 | > 100 | > 100 | > 100 | > 100 | > 100 | 58.6 | > 100 | > 100 |  | > 100

Source: PubChem BioAssay (NCI)
